Reference: patent US7592467B2, “Inhibitors of prolyl endopeptidase” (Probiodrug AG, priority 2005, dated 2009)

What was measured:
human glial U-343 cells = assay: IL-6 ELISA, basal secretion of IL-6; format: cell-based; conditions: inhibitor 20 μM, 24 hours, serum-free medium, untreated control = 100%, read-out: Extracellular IL-6 concentration, % of untreated cells
Procedure: To analyze basal secretion of IL-6, human glial U-343 cells were cultured in 6 well plates (1.5×10^6 cells/well, Greiner) and treated with specific PEP inhibitors as indicated (20 μM each) for 24 hours in serum-free D-MEM medium (invitrogen). Aliquots of 40 μl conditioned medium were used to quantify the amount of secreted IL-6 by an human-specific IL-6 ELISA (Biosource) following the manufacturer's instructions. All data were obtained in quadruplicate. For the calculation of the IL-6 concentration in the cell culture medium after PEP-inhibitor treatment, the basal IL-6 concentration of the cell culture medium of untreated cell samples was set to 100%. The results of the measurement of the IL-6 concentration with PEP-inhibitor treated cells are presented as % of the untreated cell samples.

U-343 and SH-SY5Y cells = assay: β-Amyloid ELISA, secreted β-amyloid peptides 1-40 and 1-42; format: cell-based; conditions: Homo sapiens, inhibitor 20 μM, 24 hours, conditioned medium, untreated cells = 100%, cell line and peptide (1-40/1-42) not given, read-out: Extracellular Aβ-concentration, % of control
Procedure: The human glioma cell line, U-343 and the human neuroblastoma cell line, SH-SY5Y were maintained in Dulbecco's modified Eagle's medium (DMEM) containing 10% fetal bovine serum (Gibco BRL, Karlsruhe, Germany) and incubated at 37° C. in a 5% CO2 atmosphere. Culture media contained in general 60 μg/ml gentamycin (Gibco BRL, Karlsruhe, Germany).
To quantify intracellular and extracellular concentrations of 0-amyloid peptides, 1-40 and 1-42, U-343 and SH-SY5Y cells were cultured in 6 well plates (1.5×10^6 cells/well) and treated with specific PEP inhibitors (20 μM each) for 24 hours. For quantitation of secreted β-amyloid peptides the conditioned medium was collected and concentrated by lyophylisation. Likewise, after determination of the cell numbers/well (casy cell counter I, Schärfe System, Reutlingen, Germany), cells were lyzed with cell extraction buffer (Biosource, Solingen, Germany) according to the manufacturer's protocol. The protein concentration was determined by the method of Bradford (1976). Aliquots of 100 μl were used to quantify β-amyloid peptides 1-40 and 1-42 in quadruplicate by ELISA (IBL, Hamburg, Germany) following the manufacturer's instructions. All obtained intracellular and extracellular concentrations were normalized to cell numbers and protein concentration, respectively.
For the calculation of the concentration of β-amyloid peptides 1-40 and 1-42 in the cell culture medium after PEP-inhibitor treatment, the basal concentration of β-amyloid peptides 1-40 and 1-42 in the cell culture medium of untreated cell samples was set to 100%. The results of the measurement of the concentration of β-amyloid peptides 1-40 and 1-42 with PEP-inhibitor treated cells are presented as % of the untreated cell samples.

| SMILES | activity at 20 µM (human glial U-343 cells) | activity at 20 µM (U-343 and SH-SY5Y cells) |
| --- | --- | --- |
| CCCCCCOC(=O)c1ccccc1C(=O)c1cccs1 [Example 39] | 50.2% |  |
| O=C(OCCc1ccccc1)c1ccccc1C(=O)c1ccco1 [Example 15, 2-(Phenyl-ethyl-oxycarbonyl)-1-(furylcarbonyl)-benzol] | 48.2% | 144% |
| O=C(OCC1c2ccccc2-c2ccccc21)c1ccccc1C(=O)c1cccs1 [Example 4, 2-(Fluorenyl-methyl-oxycarbonyl)-phenylthenon] | 40.7% | 200% |
| O=C(NCc1ccccc1)c1ccccc1C(=O)c1cccs1 [Example 29, 2-(Phenylmethyl-amincarbonyl)-phenylthenon] | 121% | 109% |
| O=C(OCc1ccccc1F)c1ccccc1C(=O)c1cccs1 [Example 41] | 46.4% |  |
| O=C(OCCc1cccc(O)c1)c1ccccc1C(=O)c1cccs1 [Example 46] | 35.8% |  |
| O=C(OC1Cc2ccccc2C1)c1ccccc1C(=O)c1cccs1 [Example 7, 2-([2,3-Dihydro-1H-indene-2-yl]-oxycarbonyl)-phenylthenon] | 85.3% | 205% |
| O=C(OCCc1cccs1)c1ccccc1C(=O)c1cccs1 [Example 14, 2-(Thienyl-ethyl-oxycarbonyl)-phenylthenon] | 41.4% | 200% |
| O=C(OCCc1cccc(Cl)c1)c1ccccc1C(=O)c1cccs1 [Example 12] | 53.7% | 191% |
| O=C(OCc1cccc(Cl)c1Cl)c1ccccc1C(=O)c1cccs1 [Example 44] | 26.5% |  |
| O=C(OCCCc1cccs1)c1ccccc1C(=O)c1cccs1 [Example 25] | 69% | 197% |
| O=C(OCc1ccco1)c1ccccc1C(=O)c1cccs1 [Example 13, 2-(Furyl-methyl-oxycarbonyl)-phenylthenon] | 74.2% | 122% |
| O=C(OCCc1ccccc1)c1ccccc1C(=O)c1cccs1 [Example 2] | 65.5% | 214% |
| O=C(OCCc1cccc([N+](=O)[O-])c1)c1ccccc1C(=O)c1cccs1 [Example 34] | 78.8% |  |
| Cc1cccc(CCOC(=O)c2ccccc2C(=O)c2cccs2)c1 [Example 6] | 45.8% | 215% |
| O=C(OCCc1ccc([N+](=O)[O-])cc1)c1ccccc1C(=O)c1cccs1 [Example 5, 2-(4-Nitrophenyl-ethyl-oxycarbonyl)-phenylthenon] | 102% | 160% |
| O=C(NCCc1ccccc1)c1ccccc1C(=O)c1ccco1 [Example 32] | 32% | 63.9% |
| O=C(OCCc1ccccc1)[C@@H]1CCCC[C@H]1C(=O)c1cccs1 (relative stereo) [Example 27, trans-1-(Thienylcarbonyl)-2-(phenyl-ethyl-oxycarbonyl)-cyclohexane] | 19.6% | 298% |
| O=C(OCc1ccc([N+](=O)[O-])cc1)c1ccccc1C(=O)c1cccs1 [Example 3] | 245% | 141% |
| O=C(OCc1cccc(Cl)c1)c1ccccc1C(=O)c1cccs1 [Example 20] | 49.2% | 180% |
| O=C(OCCc1ccccc1Cl)c1ccccc1C(=O)c1cccs1 [Example 26] | 36.6% | 207% |
| O=C(OCCc1cccc(F)c1)c1ccccc1C(=O)c1cccs1 [Example 38] | 33% |  |

| SMILES | activity at 20 µM (human glial U-343 cells) | activity at 20 µM (U-343 and SH-SY5Y cells) |
| --- | --- | --- |
| O=C(OCCc1cc2ccccc2s1)c1ccccc1C(=O)c1cccs1 [Example 24, 2-(Benzo[b]thiophen-2-yl-ethyl-oxycarbonyl)-phenylthenon] | 66.9% | 165% |
| O=C(OCc1ccccc1Br)c1ccccc1C(=O)c1cccs1 [Example 40] | 36% |  |
| O=C(OCCc1ccc(F)cc1)c1ccccc1C(=O)c1cccs1 [Example 43] | 29.2% |  |
| O=C(NCCCc1ccccc1)c1ccccc1C(=O)c1cccs1 [Example 31] | 30% | 203% |
| O=C(OCc1ccc(Cl)cc1)c1ccccc1C(=O)c1cccs1 [Example 19, 2-(4-Chlorophenyl-methyl-oxycarbonyl)-phenylthenon] | 35.2% | 195% |
| O=C(OCc1ccccc1[N+](=O)[O-])c1ccccc1C(=O)c1cccs1 [Example 23] | 109% | 240% |
| O=C(OCCCc1ccccc1)c1ccccc1C(=O)c1cccs1 [Example 11] | 42.4% | 192% |
| O=C(OCCc1ccsc1)c1ccccc1C(=O)c1cccs1 [Example 17] | 26.5% | 237% |
| O=C(NCCc1ccccc1)c1ccccc1C(=O)c1cccs1 [Example 30] | 42.3% | 205% |
| O=C(OCc1cccc([N+](=O)[O-])c1)c1ccccc1C(=O)c1cccs1 [Example 22] | 103% | 153% |
| O=C(OCc1ccccc1)c1ccccc1C(=O)c1cccs1 [Example 1] | 92.6% | 197% |
| O=C(NC1CC1c1ccccc1)c1ccccc1C(=O)c1cccs1 (stereo not shown) [Example 45] | 22% |  |
| O=C(OCCc1ccccc1[N+](=O)[O-])c1ccccc1C(=O)c1cccs1 [Example 33] | 54.5% |  |
| O=C(OCCN1C(=O)c2ccccc2C1=O)c1ccccc1C(=O)c1cccs1 [Example 10, 2-(Isoindolinyl-1,3-dione-ethyl-oxycarbonyl)-phenylthenon] | 143% | 125% |
| O=C(OCc1ccccc1Cl)c1ccccc1C(=O)c1cccs1 [Example 21] | 62.1% | 220% |
| O=C(OCCc1ccc2ccccc2c1)c1ccccc1C(=O)c1cccs1 [Example 8] | 93.7% | 165% |
| COc1cccc(CCOC(=O)c2ccccc2C(=O)c2cccs2)c1 [Example 35] | 46.7% |  |
| O=C(OCc1ccc(F)cc1)c1ccccc1C(=O)c1cccs1 [Example 42] | 32.4% |  |
| O=C(OCCc1ccccc1)[C@H]1CCCC[C@H]1C(=O)c1cccs1 [Example 28] | 78.8% |  |
| Cc1ccc(CCOC(=O)c2ccccc2C(=O)c2cccs2)cc1 [Example 16, 2-(4-Methylphenylethyl-oxycarbonyl)-phenylthenon] | 26.7% | 180% |
| O=C(OCc1cccc(C(F)(F)F)c1)c1ccccc1C(=O)c1cccs1 [Example 36] | 79.8% |  |
| O=C(OCCc1ccc(Cl)cc1)c1ccccc1C(=O)c1cccs1 [Example 37] | 72.5% |  |
